Measured values published in US7501530B2, “Trifluoromethyl-thiophene carboxylic acid aniledes and use thereof as fungicides” (BASF Aktiengesellschaft, priority 2003, dated 2009).

What was measured:
Botrytis cinerea [1] = assay: Protective activity against gray mold on bell-pepper leaves (Use Example 2); format: in vivo; settings: 250 ppm spray; bell-pepper seedlings; inoculated the next day; assessed visually after 5 days; untreated 100%
Text: Protective Activity against Gray Mold, Caused by Botrytis cinerea, on Bell-pepper Leaves Bell-pepper seedlings of the cultivar “Neusiedler Ideal Elite” having 4-5 well-developed leaves were sprayed to runoff point with an aqueous suspension having the concentration stated below of active compounds. The active compounds were separately prepared as a stock solution containing 0.25% by weight of active compound in acetone or dimethyl sulfoxide. This solution was admixed with 1% by weight of Emulgator Uniperol® EL (wetting agent based on ethoxylated alkylphenols which has an emulsifying and dispersing effect) and diluted with water to the desired concentration. The next day, the treated plants were inoculated with a spore suspension of Botrytis cinerea, comprising 1.7×10^6 spores/ml in a 2% strength aqueous biomalt solution. The test plants were then placed in a climatized chamber at 22-24° C. in high atmospheric humidity. After 5 days, the extent of the fungal infection on the leaves could be determined visually in %.

Botrytis cinerea [2] = assay: Activity and persistency against gray mold on bell-pepper leaves (Use Example 1); format: in vivo; settings: 63 ppm spray; bell-pepper seedlings; inoculated 7 days after treatment; assessed visually after 5 days; untreated 90%
Procedure: Activity and Persistency against Gray Mold, Caused by Botrytis cinerea, on Bell-pepper Leaves Bell-pepper seedlings of the cultivar “Neusiedler Ideal Elite” having 4-5 well-developed leaves were sprayed to runoff point with an aqueous suspension having the concentration stated below of active compounds. The suspension or emulsion was prepared from a stock solution containing 10% of active compound in a mixture comprising 85% of cyclohexanone and 5% of emulsifier. The plants were then cultivated for a further 7 days, and the treated plants were then inoculated with a spore suspension of Botrytis cinerea, which comprised 1.7×10^6 spores/ml in a 2% strength aqueous biomalt solution. The test plants were then placed in a climatized chamber at 22-24° C. in high atmospheric humidity. After 5 days, the extent of the fungal infection on the leaves could be determined visually in %, giving not only an indication of the fungicidal action of the substances but also of the persistency.

Sphaerotheca fuliginea = assay: Protective activity against mildew of cucumber (Use Example 3); format: in vivo; settings: 63 ppm spray; cucumber seedlings, cotyledon area; inoculated 20 hours after spray coating dried; assessed after 7 days; untreated 90%
Procedure: Protective Activity Against Mildew of Cucumber Caused by Sphaerotheca fuliginea Leaves of potted cucumber seedlings of the cultivar “Chinese Snake”, in the cotyledon stage, were sprayed to runoff point with an aqueous suspension having the concentration stated below of active compounds. The suspension or emulsion was prepared from a stock solution containing 10% of active compound in a mixture comprising 85% of cyclohexanone and 5% of emulsifier. 20 hours after the spray coating had dried on, the plants were inoculated with an aqueous spore suspension of mildew of cucumber (Sphaerotheca fuliginea). The plants were then cultivated in a greenhouse at 20-24° C. and 60-80% relative atmospheric humidity for 7 days. The extent of mildew development was then determined visually in % infection of the cotyledon area.

Row | Compound | Foliar infection [%] at 63 ppm (Botrytis cinerea [2]) [%] | Foliar infection [%] at 63 ppm (Sphaerotheca fuliginea) [%] | other results
1 | O=C(Nc1ccccc1C1CCCC1)c1cscc1C(F)(F)F [III-7] |  |  | Foliar infection [%] at 250 ppm (Botrytis cinerea [1]): 7%
2 | O=C(Nc1ccccc1OC(F)(F)C(F)F)c1sccc1C(F)(F)F [I-5] | 3 | 5 | 
3 | O=C(Nc1ccccc1-c1ccccc1)c1sccc1C(F)(F)F [I-12] |  | 0 | 
4 | O=C(Nc1ccccc1C1CCCC1)c1sccc1C(F)(F)F [I-2] | 7 |  | 
5 | CCC(C)c1ccccc1NC(=O)c1sccc1C(F)(F)F (stereo not drawn) [I-1] | 5 |  | 
6 | O=C(Nc1cccc(OC2CCCC2)c1)c1sccc1C(F)(F)F [I-11] | 7 |  | 
7 | O=C(Nc1ccccc1-c1ccc(F)cc1)c1sccc1C(F)(F)F [I-7] | 1 | 0 | 
8 | CC(C)Oc1cccc(NC(=O)c2ccsc2C(F)(F)F)c1 [II-8, N-(3-isopropoxyphenyl)-2-trifluoromethylthiophene-3-carboxamide] | 5 |  | 
9 | O=C(Nc1ccccc1-c1ccc(Cl)cc1)c1ccsc1C(F)(F)F [II-6] |  | 0 | 
10 | O=C(Nc1ccccc1OCC(F)(F)F)c1sccc1C(F)(F)F [I-14, N-(2-(2,2,2-trifluoroethoxy)phenyl)-3-trifluoromethylthiophene-2-carboxamide] |  |  | melting point: 125 to 127 °C
11 | O=C(Nc1ccccc1-c1ccc(Cl)cc1)c1sccc1C(F)(F)F [I-6] | 1 | 0 | 
12 | CC(C)c1ccc(-c2ccccc2NC(=O)c2sccc2C(F)(F)F)cc1 [I-13] |  | 0 | 
13 | O=C(Nc1ccccc1-c1ccc(F)cc1)c1ccsc1C(F)(F)F [II-7] | 1 | 5 | 
14 | CCCCCCOc1cccc(NC(=O)c2ccsc2C(F)(F)F)c1 [II-10] | 10 |  | 
15 | O=C(Nc1ccccc1C1CCCC1)c1ccsc1C(F)(F)F [II-2] | 10 |  | 
16 | O=C(Nc1ccccc1C1CCCCC1)c1sccc1C(F)(F)F [I-3] | 3 | 5 | 
17 | O=C(Nc1ccccc1OC(F)(F)C(F)F)c1ccsc1C(F)(F)F [II-5] | 3 |  | 
18 | O=C(Nc1ccccc1C1CCCCC1)c1ccsc1C(F)(F)F [II-3] | 5 | 3 | 
19 | CC(C)Oc1cccc(NC(=O)c2sccc2C(F)(F)F)c1 [I-8] | 10 |  | 
20 | CCC(C)c1ccccc1NC(=O)c1cscc1C(F)(F)F (stereo not drawn) [III-5] |  |  | Foliar infection [%] at 250 ppm (Botrytis cinerea [1]): 3%
21 | Cc1ccccc1-c1ccccc1NC(=O)c1cscc1C(F)(F)F [III-4] |  |  | Foliar infection [%] at 250 ppm (Botrytis cinerea [1]): 3%
